The source of these data is paper PMC9209526 (Nature Communications, 2022).

In the experiment the target is T1, N4posG321V (Abl kinase domain hinge mutant) (Homo sapiens, UniProt P00519, G321V).
T1 construct: His10-TEV (N, cleaved yes); made in house; host or cells: E. coli BL21(DE3)pLysS, co-expressed with YopH phosphatase
T1 sequence (P00519 229-512 G321V): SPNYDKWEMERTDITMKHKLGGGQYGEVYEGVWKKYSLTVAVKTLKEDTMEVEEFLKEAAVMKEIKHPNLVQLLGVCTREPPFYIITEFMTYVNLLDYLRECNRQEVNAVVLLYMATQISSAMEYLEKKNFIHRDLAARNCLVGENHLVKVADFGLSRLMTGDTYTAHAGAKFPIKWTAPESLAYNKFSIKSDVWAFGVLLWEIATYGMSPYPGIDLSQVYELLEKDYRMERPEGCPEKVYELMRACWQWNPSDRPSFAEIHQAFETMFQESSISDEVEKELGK
Briefly: ClyA-AS nanopore tweezers single-channel current recording: ligand binding to N4posG321V. The conditions noted are these: 1 mM ATP or ATPγS with 10 mM MgCl2; -80 mV.

For `Nc1ncnc2c1ncn2[C@@H]1O[C@H](CO[P@](=O)(O)O[P@](=O)(O)O[P@@](=O)(O)S)[C@@H](O)[C@H]1O` [ATPγS], the “effect on N4posG321V current trace” value was “did not trigger any change in the current trace”.
